The values below come from US10988477B2 (Merck Patent GmbH, priority 2018, dated 2021).

Like-named read-outs stand apart in the source and are kept apart here. Where only a bound is given, the exact number is not on record here.

One assay addresses GCN2 kinase (Homo sapiens, UniProt Q9P2K8). In words: GCN2 enzyme inhibition assay (Transcreener ADP2 fluorescence polarization). Format: biochemical. To be noted: 280 μM ATP. Put shortly: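 Kinase activity is followed as ADP formation, measured by fluorescence polarization, using 4 nM enzyme with 280 μM ATP and 200 μM (RS)7 peptide at pH 7.5 and 25 °C for 1 h. Values come from a non-linear tight-binding fit.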

For assay [1], the target named is intracellular GCN2 (phosphorylation of the GCN2 substrate eIF2α) (Homo sapiens, UniProt Q9P2K8). The assay can be described thus: GCN2 cellular inhibition assay (AlphaScreen SureFire P-eIF2α Ser51, borrelidin-treated U2OS cells). Format: cell-based. In short, it runs like this:
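Phospho-eIF2α (Ser51) in lysates was quantified by AlphaScreen SureFire after a 1 h, 37 °C treatment of U2OS cells with 10 μM borrelidin and compound at 4-fold dilutions starting from 40 μM final. Inhibition expressed in percent against wells stimulated by borrelidin alone.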

The mark [2] stands for this setting: compounds of Formula II, 4 nM GCN2 kinase.
[3] abbreviates: compounds of Formula II, biomarker assay, phosphorylated eIF2α Ser51 in borrelidin-treated U2OS cells.
[4] abbreviates: Enzyme activity for compounds of Formula IV, Ki(app), 25° C.
Where [5] appears, read: compounds of Formula IV, biomarker assay, phosphorylated eIF2α Ser51 in borrelidin-treated U2OS cells.

Chain of intracellular GCN2 (phosphorylation of the GCN2 substrate eIF2α) (Q9P2K8 whole entry): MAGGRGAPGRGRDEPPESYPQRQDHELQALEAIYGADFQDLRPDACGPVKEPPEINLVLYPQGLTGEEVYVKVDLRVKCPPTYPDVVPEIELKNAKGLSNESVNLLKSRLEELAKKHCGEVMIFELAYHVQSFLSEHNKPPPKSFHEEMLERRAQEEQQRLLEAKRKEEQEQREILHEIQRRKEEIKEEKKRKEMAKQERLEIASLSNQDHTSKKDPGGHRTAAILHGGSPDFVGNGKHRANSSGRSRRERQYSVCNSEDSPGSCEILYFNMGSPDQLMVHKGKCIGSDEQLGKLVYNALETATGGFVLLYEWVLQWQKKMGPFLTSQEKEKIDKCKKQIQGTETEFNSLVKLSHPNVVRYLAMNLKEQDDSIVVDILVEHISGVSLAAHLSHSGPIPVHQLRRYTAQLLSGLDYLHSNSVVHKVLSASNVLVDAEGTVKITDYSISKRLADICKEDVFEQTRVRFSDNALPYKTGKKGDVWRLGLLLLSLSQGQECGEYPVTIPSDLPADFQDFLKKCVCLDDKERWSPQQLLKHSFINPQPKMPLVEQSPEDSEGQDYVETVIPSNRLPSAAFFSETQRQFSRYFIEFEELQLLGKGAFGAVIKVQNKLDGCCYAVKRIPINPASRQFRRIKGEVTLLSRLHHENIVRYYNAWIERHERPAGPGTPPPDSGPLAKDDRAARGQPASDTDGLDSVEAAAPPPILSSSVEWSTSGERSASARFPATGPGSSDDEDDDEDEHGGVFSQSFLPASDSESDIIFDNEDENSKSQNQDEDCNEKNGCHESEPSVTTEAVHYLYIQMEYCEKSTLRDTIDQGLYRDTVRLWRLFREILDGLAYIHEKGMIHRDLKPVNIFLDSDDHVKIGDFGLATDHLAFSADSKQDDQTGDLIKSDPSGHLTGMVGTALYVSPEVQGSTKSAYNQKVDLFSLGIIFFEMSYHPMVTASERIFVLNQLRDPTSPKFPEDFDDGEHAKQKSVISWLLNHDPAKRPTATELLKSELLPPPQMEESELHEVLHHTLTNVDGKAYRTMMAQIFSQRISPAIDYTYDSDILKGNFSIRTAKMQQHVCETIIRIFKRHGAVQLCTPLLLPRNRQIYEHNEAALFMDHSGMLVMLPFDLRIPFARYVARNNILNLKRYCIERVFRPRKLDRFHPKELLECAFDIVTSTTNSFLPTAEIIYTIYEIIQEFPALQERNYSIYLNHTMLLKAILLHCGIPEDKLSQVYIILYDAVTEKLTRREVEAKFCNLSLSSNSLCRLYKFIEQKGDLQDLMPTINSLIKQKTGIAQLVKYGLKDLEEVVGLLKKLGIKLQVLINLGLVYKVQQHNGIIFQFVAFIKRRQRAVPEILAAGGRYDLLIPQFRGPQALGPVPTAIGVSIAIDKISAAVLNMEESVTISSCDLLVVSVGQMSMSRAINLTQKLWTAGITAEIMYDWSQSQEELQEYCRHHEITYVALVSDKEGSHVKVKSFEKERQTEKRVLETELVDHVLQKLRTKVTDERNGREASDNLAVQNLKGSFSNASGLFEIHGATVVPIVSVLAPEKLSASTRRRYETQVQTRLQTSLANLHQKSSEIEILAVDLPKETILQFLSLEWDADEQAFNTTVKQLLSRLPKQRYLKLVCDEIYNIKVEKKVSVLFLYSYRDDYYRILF
Chain of GCN2 kinase (Q9P2K8 whole entry): as above

Molecule `CS(=O)(=O)CCC1CCCN(c2cc(-c3cnc4ccc(C(F)F)nn34)ncn2)C1` (stereo not drawn) [II-493, 6-(Difluoromethyl)-3-(6-(3-(2-(methylsulfonyl)ethyl)piperidin-1-yl)pyrimidin-4-yl)imidazo[1,2-b]pyridazine] registered a Ki on GCN2 kinase (setting [2]) of 0.01 to 1 µM. In assay [1] (setting [3]), this molecule showed an IC50 of 0.5 to 5 µM.
As to `CS(=O)(=O)NC(=O)C1CCCN(c2cc(-c3cnc4ccc(C(F)F)nn34)ncn2)C1` (stereo not drawn) [II-460, 1-(6-(6-(Difluoromethyl)imidazo[1,2-b]pyridazin-3-yl)pyrimidin-4-yl)-N-(methylsulfonyl)piperidine-3-carboxamide], the Ki at GCN2 kinase (setting [2]) fell in the range of 0.01 to 1 µM. For the same molecule, the IC50 in assay [1] (setting [3]) was > 5 µM.
Taken in the same sequence, the figures for `CC(=O)N1CCN(c2cc(-c3cnc4ccc(C(F)F)nn34)ncn2)C(C)C1` (stereo not drawn) [II-368, 1-(4-(6-(6-(Difluoromethyl)imidazo[1,2-b]pyridazin-3-yl)pyrimidin-4-yl)-3-methylpiperazin-1-yl)ethan-1-one] were 0.01 to 1 µM and > 5 µM.
In the same order, the values of `CS(=O)(=O)NCC1CC(N2CC(F)C2)CN(c2cc(-c3cnc4ccc(C(F)F)nn34)ncn2)C1` (stereo not drawn) [II-429, N-((1-(6-(6-(Difluoromethyl)imidazo[1,2-b]pyridazin-3-yl)pyrimidin-4-yl)-5-(3-fluoroazetidin-1-yl)piperidin-3-yl)methyl)methanesulfonamide] are 0.01 to 1 µM and > 5 µM.
In the same order, the values of `CN(CC1CCCN(c2cc(-c3cnc4ccc(C(F)F)nn34)ccn2)C1)S(C)(=O)=O` (stereo not drawn) [II-109, N-((1-(4-(6-(Difluoromethyl)imidazo[1,2-b]pyridazin-3-yl)pyridin-2-yl)piperidin-3-yl)methyl)-N-methylmethanesulfonamide] are 0.01 to 1 µM and 0.5 to 5 µM.
At GCN2 kinase (setting [2]), `O=S(=O)(NCC1CCCN(c2cc(-c3cnc4ccc(C(F)F)nn34)ncn2)C1)C1COC1` (stereo not drawn) [II-289, N-((1-(6-(6-(Difluoromethyl)imidazo[1,2-b]pyridazin-3-yl)pyrimidin-4-yl)piperidin-3-yl)methyl)oxetane-3-sulfonamide] had a Ki of 0.01 to 1 µM. Besides, the IC50 in assay [1] (setting [3]) is 0.5 to 5 µM.
In the same order, the values of `CC1(C)COCCN1c1cc(-c2cnc3ccc(C(F)F)nn23)ncn1` [II-402, 4-(6-(6-(Difluoromethyl)imidazo[1,2-b]pyridazin-3-yl)pyrimidin-4-yl)-3,3-dimethylmorpholine] are 0.01 to 1 µM and > 5 µM.
As for `C[C@H]1CN(c2cc(-c3cnn4ccc(C(F)F)nc34)ncn2)C[C@@H](CNS(C)(=O)=O)C1(F)F` [III-12, N-[[(3S,5S)-1-[6-[5-(Difluoromethyl)pyrazolo[1,5-a]pyrimidin-3-yl]pyrimidin-4-yl]-4,4-difluoro-5-methyl-3-piperidyl]methyl]methanesulfonamide], on GCN2 kinase (compounds of Formula III, 4 nM GCN2 kinase), the Ki is < 0.01 µM. In addition, the IC50 in assay [1] (compounds of Formula III, U2OS cells, 10 μM borrelidin, 1 h, read-out: GCN2 Biomarker (IC50)) is < 0.5 µM.
With `Cn1cc(C2CCN(c3ccnc(-c4cnc5cnc(C(F)F)cn45)n3)C2)cn1` (stereo not drawn) [IV-65, 6-(Difluoromethyl)-3-(4-(3-(1-methyl-1H-pyrazol-4-yl)pyrrolidin-1-yl)pyrimidin-2-yl)imidazo[1,2-a]pyrazine], the Ki on GCN2 kinase (setting [4]) was in the range of 0.1 to 1 µM. Further, the IC50 in assay [1] (setting [5]) is > 5 µM.
In the same order, the values of `Brc1cn2c(-c3nccc(N4CCCC(c5cn[nH]c5)C4)n3)cnc2cn1` (single isomer, unassigned) [IV-361, 3-(4-(3-(1H-Pyrazol-4-yl)piperidin-1-yl)pyrimidin-2-yl)-6-bromoimidazo[1,2-a]pyrazine] are < 0.01 µM and < 0.5 µM.
`CC(NS(C)(=O)=O)[C@@H]1CN(c2cc(-c3cnc4ccc(C(F)F)nn34)ncn2)CCO1` (single isomer, unassigned) [II-510] showed a Ki at GCN2 kinase (setting [2]) of 0.01 to 1 µM. Also, the 50% inhibitory concentration (IC50) in assay [1] (setting [3]) was 0.5 to 5 µM.
`OCCn1cc(-c2cc(-c3cnc4ccc(C(F)F)nn34)ccn2)cn1` [II-113, 2-(4-(4-(6-(Difluoromethyl)imidazo[1,2-b]pyridazin-3-yl)pyridin-2-yl)-1H-pyrazol-1-yl)ethanol]: the Ki on GCN2 kinase (setting [2]) lay in the range of 0.01 to 1 µM. In assay [1] (setting [3]), this molecule returned an IC50 of 0.5 to 5 µM.
